The term IC50 denotes the concentration that gives 50% inhibition. For orientation: GI50 means the concentration at which growth is held to half of that of the control. Low values mean greater sensitivity of the cells, high ones lower sensitivity of the cells.

Consider 25 compounds from US20250179059A1 (The Regents of the University of California, priority 2021, published 2025).

Where two headings read alike, the source gives them in different places.

Test [1] addresses T1, human BRD4 bromodomain II (Homo sapiens, UniProt O60885).
T1 construct: human BRD4 bromodomain II [based on Genbank NM_058243, residues 349-460]; host or cells: E. coli
The test is described as follows: Bromodomain binding assay (AlphaScreen), BRD4 BDII. Summed up: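 Inhibition of acetyl-H4 peptide binding to human BRD4 bromodomains is measured by bead-based proximity (AlphaScreen) in pH 7.5 HEPES buffer containing 0.05% CHAPS and 0.1% BSA. Ten compound concentrations in 3-fold steps give competitive binding IC50s.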

In test [2] the test system is human SKM-1 acute myeloid leukemia cells. Put plainly: SKM-1 antiproliferation cell-based assay (ATPlite). Particulars: Homo sapiens. Put shortly:
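Log-phase cells in RPMI 1640/15% FBS were seeded at 34722 cells/mL and exposed for 4 days to nine-concentration DMSO serial dilutions in triplicate. Viability was read as ATP luminescence (ATPlite 1step), and IC50 values came from variable-slope non-linear regression.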

Where [3] appears, read: AlphaScreen assay, Table C2, read-out: BRD4 BDII IC50.
Setting [4] is: SKM-1, 96 h, SKM-1 antiproliferation assay, 4 days, Table C2.
Setting [5] is: BRD4 BDII AlphaScreen assay, read-out: BRD4 BD2 IC50.
The mark [6] stands for this setting: SKM-1, SKM-1 antiproliferation assay.

Take `Cn1ccn(-c2ccc(-c3cc(F)cc(-c4ccnc(N5CCN(Cc6ccccc6)CC5)c4)c3O)cc2Cl)c1=O` [Example 629, 1-(3′-(2-(4-benzylpiperazin-1-yl)pyridin-4-yl)-3-chloro-5′-fluoro-2′-hydroxy-[1,1′-biphenyl]-4-yl)-3-methyl-1H-imidazol-2(3H)-one]: the IC50 in test [1] (setting [3]) was 0.01 to 1 nM. This compound yielded a GI50 in test [2] (setting [4]) of 30 to 300 nM.

Turning to `CC(=O)Nc1ccc(-c2cccc(-c3cc(OC4CCC(O)CC4)nc(N4CCNCC4)c3)c2O)cc1F` (centres unmarked) [Example 361, N-(3-fluoro-2′-hydroxy-3′-(2-((4-hydroxycyclohexyl)oxy)-6-(piperazin-1-yl)pyridin-4-yl)-[1,1′-biphenyl]-4-yl)acetamide], the IC50 in test [1] (setting [3]) was in the range of 10 to 100 nM. In test [2] (setting [4]), this compound returned a 50% growth inhibitory concentration (GI50) of 30 to 300 nM.

Consider `Cn1ccn(-c2ccc(-c3cc(F)cc(-c4ccnc(N5CCNC(CCN)C5)c4)c3O)cc2Cl)c1=O` (centres unmarked) [Example 697, 1-(3′-(2-(3-(2-aminoethyl)piperazin-1-yl)pyridin-4-yl)-3-chloro-5′-fluoro-2′-hydroxy-[1,1′-biphenyl]-4-yl)-3-methyl-1H-imidazol-2(3H)-one], for which the IC50 in test [1] (setting [3]) is 1 to 10 nM. Besides, the GI50 in test [2] (setting [4]) was 30 to 300 nM.

Consider `Cn1ccn(-c2ccc(-c3cc(F)cc(-c4cc(N5CC[C@H](N)C5)c5nc[nH]c5c4)c3O)cc2Cl)c1=O` [Example 533, (S)-1-(3′-(4-(3-aminopyrrolidin-1-yl)-1H-benzo[d]imidazol-6-yl)-3-chloro-5′-fluoro-2′-hydroxy-[1,1′-biphenyl]-4-yl)-3-methyl-1H-imidazol-2(3H)-one], for which the IC50 in test [1] (setting [3]) lay in the range of 1 to 10 nM. The same compound returned a GI50 in test [2] (setting [4]) of 0.3 to 30 nM.

On to `COC(=O)OCOc1c(-c2ccc(-n3ccn(C)c3=O)c(Cl)c2)cc(F)cc1-c1cnc(C)c(N2CCN(C(C)C)CC2)c1` [Example 878], for which the IC50 in test [1] (setting [5]) is greater than 100 nM. The compound also gave a GI50 in test [2] (setting [6]) of 0.3 to 30 nM.

`Cn1ccn(-c2ccc(-c3cc(F)cc(-c4ccnc(N5CC[C@@H](O)C5)c4)c3O)cc2Cl)c1=O` [Example 627, (R)-1-(3-chloro-5′-fluoro-2′-hydroxy-3′-(2-(3-hydroxypyrrolidin-1-yl)pyridin-4-yl)-[1,1′-biphenyl]-4-yl)-3-methyl-1H-imidazol-2(3H)-one]: the IC50 in test [1] (setting [3]) was 0.01 to 1 nM. Also, the GI50 in test [2] (setting [4]) is 30 to 300 nM.

Consider `Cn1ccn(-c2ccc(-c3cc(Cl)cc(-c4ccnc(N5CC[C@H](N)C5)c4)c3O)cc2Cl)c1=O` [Example 539, (S)-1-(3′-(2-(3-aminopyrrolidin-1-yl)pyridin-4-yl)-3,5′-dichloro-2′-hydroxy-[1,1′-biphenyl]-4-yl)-3-methyl-1H-imidazol-2(3H)-one], for which the IC50 in test [1] (setting [3]) fell in the range of 1 to 10 nM. This compound displayed a GI50 in test [2] (setting [4]) of 0.3 to 30 nM.

As to `CN1CCN(c2ccc(-c3cc(F)cc(-c4cc(N5CCNCC5)c5[nH]ncc5c4)c3O)cc2Cl)C1=O` [Example 424, 1-(3-chloro-5′-fluoro-2′-hydroxy-3′-(7-(piperazin-1-yl)-1H-indazol-5-yl)-[1,1′-biphenyl]-4-yl)-3-methylimidazolidin-2-one], the IC50 in test [1] (setting [3]) is 0.01 to 1 nM. In test [2] (setting [4]), this compound gave a GI50 of 30 to 300 nM.

For the compound `Cn1ccn(-c2ccc(-c3cnnc(-c4cccc(N5CCN(C(C)(C)C)CC5)c4)c3O)cc2Cl)c1=O` [Example 1020, 1-(4-(6-(3-(4-(tert-Butyl)piperazin-1-yl)phenyl)-5-hydroxypyridazin-4-yl)-2-chlorophenyl)-3-methyl-1H-imidazol-2(3H)-one], in test [1] (setting [5]), the IC50 was greater than 100 nM. This compound also returned a GI50 in test [2] (setting [6]) of 300 to 3000 nM.

For `C[C@H]1CCCN(c2cc(-c3cc(F)cc(-c4ccc(-n5ccn(C)c5=O)c(Cl)c4)c3O)cc3[nH]ncc23)C1` [Example 596, (S)-1-(3-chloro-5′-fluoro-2′-hydroxy-3′-(4-(3-methylpiperidin-1-yl)-1H-indazol-6-yl)-[1,1′-biphenyl]-4-yl)-3-methyl-1H-imidazol-2(3H)-one], the IC50 in test [1] (setting [3]) lay within 10 to 100 nM. Further, the GI50 in test [2] (setting [4]) is 300 to 3000 nM.

Regarding `Cc1cc(-c2ccnc(N3CCNCC3)c2)c(O)c(-c2ccc(N3CCN(C)C3=O)c(Cl)c2)c1` [Example 306, l-(3-chloro-2′-hydroxy-5′-methyl-3′-(2-(piperazin-1-yl)pyridin-4-yl)-[1,1'-biphenyl]-4-yl)-3-methylimidazolidin-2-one], the IC50 in test [1] (setting [3]) lay in the range of 1 to 10 nM. The compound further displayed a GI50 in test [2] (setting [4]) of 30 to 300 nM.

In the case of `Cn1ccn(-c2ccc(-c3cc(F)cc(-c4ccnc(N5CCCC(C)(N)C5)c4)c3O)cc2Cl)c1=O` (centres unmarked) [Example 744, 1-(3′-(2-(3-amino-3-methylpiperidin-1-yl)pyridin-4-yl)-3-chloro-5′-fluoro-2′-hydroxy-[1,1′-biphenyl]-4-yl)-3-methyl-1H-imidazol-2(3H)-one], in test [1] (setting [3]), the IC50 was 0.01 to 1 nM. Moreover, the GI50 in test [2] (setting [4]) lay in the range of 0.3 to 30 nM.

In the case of `COc1ncc(-c2cc(F)cc(-c3ccc(-n4ccn(C)c4=O)c(Cl)c3)c2O)cc1N1CC[C@@]2(CCN2C(C)C)C1` [Example 902], in test [1] (setting [5]), the IC50 was 0.01 to 1 nM. The compound also gave a GI50 in test [2] (setting [6]) of 0.3 to 30 nM.

Turning to `Cc1ncc(-c2cc(F)cc(-c3ccc(-n4ccn(C)c4=O)c(Cl)c3)c2O)cc1N1CCC2(CCN2C(C)C)C1` (centres unmarked) [Example 891], in test [1] (setting [5]), the IC50 lay within 1 to 10 nM. The GI50 in test [2] (setting [6]) is 0.3 to 30 nM.

For `C[C@@H]1CN(c2cc(-c3cc(F)cc(-c4ccc(-n5ccn(C)c5=O)c(Cl)c4)c3O)ccn2)CCN1C` [Example 493, (R)-1-(3-chloro-3′-(2-(3,4-dimethylpiperazin-1-yl)pyridin-4-yl)-5′-fluoro-2′-hydroxy-[1,1′-biphenyl]-4-yl)-3-methyl-1H-imidazol-2(3H)-one], the IC50 in test [1] (setting [3]) was in the range of 0.01 to 1 nM. In addition, the GI50 in test [2] (setting [4]) was in the range of 0.3 to 30 nM.

For `CN1CCN(c2ccc(-c3cccc(-c4cncc(N5CCNCC5)c4)c3O)cc2Cl)C1=O` [Example 293, 1-(3-chloro-2′-hydroxy-3′-(5-(piperazin-l-yl)pyridin-3-yl)-[1,1′-biphenyl]-4-yl)-3-methylimidazolidin-2-one], the IC50 in test [1] (setting [3]) fell in the range of 1 to 10 nM. The compound also registered a GI50 in test [2] (setting [4]) of 30 to 300 nM.

On to `CC(=O)Nc1ccc(-c2cccc(-c3cc(OCCN)nc(N4CCNCC4)c3)c2O)cc1F` [Example 302, N-(3′-(2-(2-aminoethoxy)-6-(piperazin-l-yl)pyridin-4-yl)-3-fluoro-2′-hydroxy-[1,1′-biphenyl]-4-yl)acetamide], for which, in test [1] (setting [3]), the IC50 was 10 to 100 nM. The compound further registered a GI50 in test [2] (setting [4]) of 300 to 3000 nM.

Turning to `O=c1ccccn1-c1ccc(-c2cc(F)cc(-c3ccnc(N4CCNCC4)c3)c2O)cc1Cl` [Example 502, 1-(3-chloro-5′-fluoro-2′-hydroxy-3′-(2-(piperazin-1-yl)pyridin-4-yl)-[1,1′-biphenyl]-4-yl)pyridin-2(1H)-one], the IC50 in test [1] (setting [3]) is greater than 100 nM. This compound came in with a GI50 in test [2] (setting [4]) of no less than 3000 nM.

Regarding `CN1CCN(c2cc(-c3cc(F)cc(-c4ccc(N5CCN(C)C5=O)c(Cl)c4)c3O)ccn2)CC1` [Example 441, 1-(3-chloro-5′-fluoro-2′-hydroxy-3′-(2-(4-methylpiperazin-1-yl)pyridin-4-yl)-[1,1′-biphenyl]-4-yl)-3-methylimidazolidin-2-one], in test [1] (setting [3]), the IC50 is 1 to 10 nM. The same compound registered a GI50 in test [2] (setting [4]) of 30 to 300 nM.

For the compound `C[C@@H]1CN(c2cncc(-c3cc(F)cc(-c4ccc(-n5ccn(C)c5=O)c(Cl)c4)c3O)c2)CCN1` [Example 467, (R)-1-(3-chloro-5′-fluoro-2′-hydroxy-3′-(5-(3-methylpiperazin-1-yl)pyridin-3-yl)-[1,1′-biphenyl]-4-yl)-3-methyl-1H-imidazol-2(3H)-one], the IC50 in test [1] (setting [3]) fell in the range of 0.01 to 1 nM. The GI50 in test [2] (setting [4]) was in the range of 0.3 to 30 nM.

Regarding `Cn1cc(-c2cc(F)cc(-c3ccc(-n4ccn(C)c4=O)c(Cl)c3)c2O)cc(N2CC[C@](C)(N)C2)c1=O` [Example 759, (S)-3-(3-amino-3-methylpyrrolidin-1-yl)-5-(3′-chloro-5-fluoro-2-hydroxy-4′-(3-methyl-2-oxo-2,3-dihydro-1H-imidazol-1-yl)-[1,1′-biphenyl]-3-yl)-1-methylpyridin-2(1H)-one], in test [1] (setting [3]), the IC50 is 0.01 to 1 nM. In addition, the GI50 in test [2] (setting [4]) was 0.3 to 30 nM.

In the case of `Cn1ccn(-c2ccc(-c3cc(F)cc(-c4ccnc(N5CC6(CCNC6)CC5=O)c4)c3O)cc2Cl)c1=O` (centres unmarked) [Example 705, 2-(4-(3′-chloro-5-fluoro-2-hydroxy-4′-(3-methyl-2-oxo-2,3-dihydro-1H-imidazol-1-yl)-[1,1′-biphenyl]-3-yl)pyridin-2-yl)-2,7-diazaspiro[4.4]nonan-3-one], the IC50 in test [1] (setting [3]) was 0.01 to 1 nM. For the same compound, in test [2] (setting [4]), the GI50 is 30 to 300 nM.

Take `CC(C)Oc1cc(-c2cc(F)cc(-c3cccc(N4CCN(C(C)(C)C)CC4)c3)c2O)cc(Cl)c1-n1ccn(C)c1=O` [Example 937, 1-(3″-(4-(tert-butyl)piperazin-1-yl)-3-chloro-5′-fluoro-2′-hydroxy-5-isopropoxy-[1,1′:3′,1″-terphenyl]-4-yl)-3-methyl-1,3-dihydro-2H-imidazol-2-one]: the IC50 in test [1] (setting [5]) was in the range of 10 to 100 nM. This compound came in with a GI50 in test [2] (setting [6]) of 30 to 300 nM.

As for `Cc1cc(-c2ccc(-n3ccn(C)c3=O)c(Cl)c2)c(O)c(-c2cc(N3CCN(C(C)(C)C)CC3)cc(F)c2F)n1` [Example 1027, 1-(4-(2-(5-(4-(tert-butyl)piperazin-1-yl)-2,3-difluorophenyl)-3-hydroxy-6-methylpyridin-4-yl)-2-chlorophenyl)-3-methyl-1H-imidazol-2(3H)-one], the IC50 in test [1] (setting [5]) was 0.01 to 1 nM. Further, the GI50 in test [2] (setting [6]) is 0.3 to 30 nM.

For `CC(C)N1CCN(c2cc(-c3cc(F)cc(-c4ccc(-n5ccn(C)c5=O)c(Cl)c4)c3O)ccc2C(F)(F)F)CC1` [Example 811, 1-(3-chloro-5′-fluoro-2′-hydroxy-3″-(4-isopropylpiperazin-1-yl)-4″-(trifluoromethyl)-[1,1′:3′,1″-terphenyl]-4-yl)-3-methyl-1H-imidazol-2(3H)-one], the IC50 in test [1] (setting [3]) is 1 to 10 nM. For the same compound, the GI50 in test [2] (setting [4]) lay within 30 to 300 nM.
